How the values were obtained:
[1] = target: T1, BRD9 bromodomain (BRD9-BD) (Homo sapiens, UniProt Q9H8M2); experiment: ITC, BRD9-BD titrated into PROTAC (binary); assay type: binding; settings: 25 °C
T1 construct: the bromodomain (residues 134–239) for BRD9 (Q9H8M2); His6 (cleaved yes); made in house; host or cells: Escherichia coli BL21(DE3)
T1 sequence (Q9H8M2 134-239): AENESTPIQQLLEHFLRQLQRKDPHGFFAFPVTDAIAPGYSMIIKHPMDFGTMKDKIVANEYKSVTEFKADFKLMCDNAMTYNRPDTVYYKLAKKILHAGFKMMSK

[2] = target: T2, VCB:PROTAC:BRD9-BD ternary complex (Homo sapiens, UniProt P40337+Q9H8M2); experiment: AlphaLISA proximity assay of ternary complex formation; assay type: binding; settings: for AlphaLISA max intensity: biotinylated VCB 100 nM, His6-BRD9-bromodomain 100 nM
T2 construct: the bromodomain (residues 134–239) for BRD9 (Q9H8M2); made in house; host or cells: Escherichia coli BL21(DE3)
T2 sequence (P40337 54-213 limits assumed, one chain of several): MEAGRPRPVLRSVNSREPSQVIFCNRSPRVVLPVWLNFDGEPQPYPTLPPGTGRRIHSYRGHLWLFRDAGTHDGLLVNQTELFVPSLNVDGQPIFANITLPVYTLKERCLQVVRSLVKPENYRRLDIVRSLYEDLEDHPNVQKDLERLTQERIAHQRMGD
T2 sequence (Q15369 17-112 partner limits assumed, one chain of several): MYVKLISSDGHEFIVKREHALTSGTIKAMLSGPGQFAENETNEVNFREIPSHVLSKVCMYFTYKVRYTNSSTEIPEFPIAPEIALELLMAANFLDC
T2 sequence (Q15370 1-104 partner limits assumed, one chain of several): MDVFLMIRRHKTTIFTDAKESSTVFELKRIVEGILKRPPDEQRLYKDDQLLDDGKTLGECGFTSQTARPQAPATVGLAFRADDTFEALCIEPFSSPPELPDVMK
Procedure: All assays were performed at room temperature in 384-well plates with a final assay volume of 25 μL per well, as described previously.[5] All reagents were prepared as 5× stocks diluted in 50 mM HEPES, pH 7.5, 100 mM NaCl, 0.1% (w/v) bovine serum albumin, and 0.02% (w/v) 3-[(cholamidopropyl)dimethylammonio]-1-propanesulfonate (CHAPS). Plates were sealed by transparent film and briefly centrifuged at 100g between additions of reagents. Biotinylated VCB (100 nM final) and His6-BRD9-bromodomain (100 nM final) were incubated with a range of PROTAC concentrations (0.5–2000 nM; two-in-one serial dilution) for 1 h. Streptavidin-coated donor beads and nickel chelate acceptor beads (PerkinElmer) were added to a final concentration of 10 μg mL^–1, and plates were incubated for another hour. Plates were read on a PHERAstar FS (BMG Labtech) using an optic module with an excitation wavelength of 680 nm and emission wavelength of 615 nm. Intensity values were plotted against PROTAC concentration on a log10 scale using GraphPad Prism, version 7. To obtain biotinylated-VCB, protein was mixed with EZ-link NHS-PEG4-biotin (Thermo Scientific) in a 1:1 molar ratio and incubated at room temperature for 1 h. The reaction was quenched using 1 M Tris-HCl, pH 7.5, and unreacted NHS-biotin was removed with a PD-10 MiniTrap desalting column (GE Healthcare) equilibrated with 20 mM HEPES, pH 7.5, 150 mM NaCl, and 1 mM DTT.

[3] = target: T3, VCB in the presence of BRD9-BD (Homo sapiens, UniProt P40337+Q9H8M2); experiment: Fluorescence polarization, displacement of FAM-labeled HIF-1α peptide in the presence of BRD9-BD (ternary); assay type: binding; settings: binary versus ternary
T3 construct: the bromodomain (residues 134–239) for BRD9 (Q9H8M2); His6 (cleaved yes); made in house; host or cells: Escherichia coli BL21(DE3)
T3 sequence (P40337 54-213 limits assumed, one chain of several): as the sequence (P40337 54-213 limits assumed, one chain of several) above
T3 sequence (Q15369 17-112 partner limits assumed, one chain of several): as the sequence (Q15369 17-112 partner limits assumed, one chain of several) above
T3 sequence (Q15370 1-104 partner limits assumed, one chain of several): as the sequence (Q15370 1-104 partner limits assumed, one chain of several) above

[4] = target: T4, VCB (VHL-ElonginC-ElonginB complex) (Homo sapiens, UniProt P40337); experiment: ITC, VCB titrated into PROTAC alone (binary); assay type: binding; settings: 25 °C
T4 construct: His6 (cleaved yes); made in house; host or cells: Escherichia coli BL21(DE3)
T4 sequence (P40337 54-213 limits assumed): as the sequence (P40337 54-213 limits assumed, one chain of several) above
T4 sequence (Q15369 17-112 partner limits assumed): as the sequence (Q15369 17-112 partner limits assumed, one chain of several) above
T4 sequence (Q15370 1-104 partner limits assumed): as the sequence (Q15370 1-104 partner limits assumed, one chain of several) above

[5] = CHI LogD determination (reverse-phase HPLC); assay type: physicochemical; settings: reversed-phase HPLC (ACE Excel 3 SuperC18 column), pH 7.4; read-out: CHI LogD (pH7.4)
Procedure: removed from both acceptor and donor compartments and mixed with acetonitrile (80 µL) containing an internal standard. The samples were centrifuged (10 min, 5 °C, 3270 g) to sediment precipitated protein and sealed prior to UPLC-MS/MS analysis using a Xevo TQ-S Micro (Waters Corp, USA). Pe was calculated as shown in the below equation: […]
CA(t) = peak area of compound present in acceptor well at time t = 18000 s Cequi = [CD(t) x VD + CA(t) x VA] / (VD + VA)
VA = acceptor well volume
CD(t) = peak area of compound present in donor well at time t = 18000 s Recovery of compound from donor and acceptor wells was calculated and data was only accepted when recovery exceeded 70%.
Using a fast gradient, reverse-phase HPLC method to determine the chromatographic hydrophobicity index (CHI) was determined as described by Camurri and Zaramella (ref. 3) and Valko et al. (ref. 4). Briefly, by plotting the retention time of a set of reference […]
compounds against known CHI values. The CHI value of test compounds was then calculated according to their retention time.
Test compounds were prepared as 0.25 mM solutions in 50:50 acetonitrile:water and analysed by reversed-phase HPLC-UV (wavelength 254 nm) using a ACE Excel 3 SuperC18, 3 µm, 50 x 2.1 mm column with a gradient of aqueous phase (10 mM ammonium acetate, pH 7.4) and mobile phase (acetonitrile).
Intrinsic clearance (Cli) experiments
Test compound (0.5 µM) was incubated with female CD1 mouse or human (mixed gender) liver microsomes (Xenotech LLCTM; 0.5 mg/mL 50mM potassium phosphate buffer, pH7.4) and the reaction initiated with addition of excess NADPH (8 mg/mL 50 mM potassium phosphate buffer, pH7.4). Immediately, at time zero, then at 3, 6, 9, 15 and 30 minutes an aliquot (50 µL) of the incubation mixture was removed and mixed with acetonitrile (100 µL) to stop the reaction. Internal standard was added to all samples, the samples centrifuged to sediment precipitated protein and the plates then sealed prior to […] analysis using […]
a Xevo TQ-S Micro (Waters corporation, USA).
XLfit (IDBS, UK) was used to calculate the exponential decay and consequently the rate constant (k) from the ratio of peak area of test compound to internal standard at each timepoint. The rate of intrinsic clearance (CLi) of each test compound was then calculated using the following calculation:
CLi(mL/min/g liver) = k x V x Microsomal protein yield
Where V (mL/mg protein) is the incubation volume/mg protein added and microsomal protein yield is taken as 52.5 mg protein/ g liver. Verapamil (0.5 µM) was used as a positive control to confirm acceptable assay performance.

Row | Compound | N (stoichiometry), BRD9-BD into PROTAC [1] | ΔG, BRD9-BD into PROTAC [1] | AlphaLISA max intensity [2] | cooperativity α (FP) [3] | N (stoichiometry), VCB into PROTAC alone [4] | ΔG, VCB into PROTAC alone [4] | ΔH, VCB into PROTAC alone [4] | ΔH, BRD9-BD into PROTAC [1] | –TΔS, BRD9-BD into PROTAC [1] [kcal/mol] | chromatographic logD [5] | increase in the maximum α intensity compared to VCB:5:BRD9-BD ([2]; AlphaLISA) [%] | –TΔS, VCB into PROTAC alone [4]
1 | COc1cc(-c2cn(C)c(=O)c3cnccc23)cc(OC)c1CN1CCN(CCOCCOCC(=O)N[C@H](C(=O)N2C[C@H](O)C[C@H]2C(=O)NCc2ccc(-c3scnc3C)cc2)C(C)(C)C)CC1 [Compound 5, (2S,4R)-1-((S)-2-(2-(2-(2-(4-(2,6-Dimethoxy-4-(2-methyl-1-oxo-1,2-dihydro-2,7-naphthyridin-4-yl)benzyl)piperazin-1-yl)ethoxy)ethoxy)acetamido)-3,3-dimethylbutanoyl)-4-hydroxy-N-(4-(4-methylthiazol-5-yl)benzyl)pyrrolidine-2-carboxamide] | 0.753 ± 0.004 | –10.7 ± 0.1 kcal/mol | 1.0 × 10^6 | 0.24 | 0.60 ± 0.01 | –10.2 ± 0.1 kcal/mol | –15.2 ± 0.1 kcal/mol | – | – | – | – | –
2 | COc1cc(-c2cn(C)c(=O)c3cnccc23)cc(OC)c1CN1CCN(CCOCCOCCOc2cc(-c3scnc3C)ccc2CNC(=O)[C@@H]2C[C@@H](O)CN2C(=O)[C@@H](NC(=O)C2(F)CC2)C(C)(C)C)CC1 [Compound 26, (2S,4R)-N-(2-(2-(2-(2-(4-(2,6-Dimethoxy-4-(2-methyl-1-oxo-1,2-dihydro-2,7-naphthyridin-4-yl)benzyl)piperazin-1-yl)ethoxy)ethoxy)ethoxy)-4-(4-methylthiazol-5-yl)benzyl)-1-((S)-2-(1-fluorocyclopropane-1-carboxamido)-3,3-dimethylbutanoyl)-4-hydroxypyrrolidine-2-carboxamide] | 1.00 | –11.0 ± 0.1 kcal/mol | 1.56 × 10^6 | 1.17 | 0.99 | –9.64 ± 0.03 kcal/mol | –6.56 ± 0.09 kcal/mol | –11.4 ± 0.1 kcal/mol | 0.44 ± 0.05 | 2 | 50 | –3.1 ± 0.1 kcal/mol
3 | COc1cc(-c2cn(C)c(=O)c3cnccc23)cc(OC)c1CN1CCN(CCCCCOc2cc(-c3scnc3C)ccc2CNC(=O)[C@@H]2C[C@H](O)CN2C(=O)[C@@H](NC(=O)C2(F)CC2)C(C)(C)C)CC1 [cisVZ185] | – | – | – | – | – | – | – | – | – | 2.4 | – | –
4 | COc1cc(-c2cn(C)c(=O)c3cnccc23)cc(OC)c1CN1CCN(CCCCCOc2cc(-c3scnc3C)ccc2CNC(=O)[C@@H]2C[C@@H](O)CN2C(=O)[C@@H](NC(=O)C2(F)CC2)C(C)(C)C)CC1 [Compound 51, (2S,4R)-N-(2-((5-(4-(2,6-Dimethoxy-4-(2-methyl-1-oxo-1,2-dihydro-2,7-naphthyridin-4-yl)benzyl)piperazin-1-yl)pentyl)oxy)-4-(4-methylthiazol-5-yl)benzyl)-1-((S)-2-(1-fluorocyclopropane-1-carboxamido)-3,3-dimethylbutanoyl)-4-hydroxypyrrolidine-2-carboxamide] | 0.77 | –11.35 ± 0.05 kcal/mol | 1.47 × 10^6 | 1.00 | 0.73 | –10.4 ± 0.2 kcal/mol | –7.04 ± 0.08 kcal/mol | –12.8 ± 0.1 kcal/mol | – | 2.3 | – | –3.4 ± 0.1 kcal/mol
